“Also recorded” adds a separate entry of the source.
Columns and labels:
HpAgD [1] = biological target: T1, HpAgD (Helicobacter pylori, UniProt O24890); assay: Inactivation kinetics of HpAgD; assay type: biochemical
HpAgD [2] = biological target: T1, HpAgD; assay: Substrate protection experiments; assay type: biochemical; conditions: agmatine 0.5 vs 1.0 mM; ABFA 500 μM or ABCA 175 μM
HpAgD [3] = biological target: T1, HpAgD; assay: Irreversibility of inactivation; assay type: biochemical; conditions: 1.0 mM inhibitor, 1 h at 37 °C, dialyzed 20 h
PAD4 = PAD4 (Homo sapiens, UniProt Q9UM07); assay: PAD4 inhibition; assay type: biochemical; conditions: for inhibition of PAD4: concentrations as high as 1 mM
Chain of PAD4 (Q9UM07 whole entry): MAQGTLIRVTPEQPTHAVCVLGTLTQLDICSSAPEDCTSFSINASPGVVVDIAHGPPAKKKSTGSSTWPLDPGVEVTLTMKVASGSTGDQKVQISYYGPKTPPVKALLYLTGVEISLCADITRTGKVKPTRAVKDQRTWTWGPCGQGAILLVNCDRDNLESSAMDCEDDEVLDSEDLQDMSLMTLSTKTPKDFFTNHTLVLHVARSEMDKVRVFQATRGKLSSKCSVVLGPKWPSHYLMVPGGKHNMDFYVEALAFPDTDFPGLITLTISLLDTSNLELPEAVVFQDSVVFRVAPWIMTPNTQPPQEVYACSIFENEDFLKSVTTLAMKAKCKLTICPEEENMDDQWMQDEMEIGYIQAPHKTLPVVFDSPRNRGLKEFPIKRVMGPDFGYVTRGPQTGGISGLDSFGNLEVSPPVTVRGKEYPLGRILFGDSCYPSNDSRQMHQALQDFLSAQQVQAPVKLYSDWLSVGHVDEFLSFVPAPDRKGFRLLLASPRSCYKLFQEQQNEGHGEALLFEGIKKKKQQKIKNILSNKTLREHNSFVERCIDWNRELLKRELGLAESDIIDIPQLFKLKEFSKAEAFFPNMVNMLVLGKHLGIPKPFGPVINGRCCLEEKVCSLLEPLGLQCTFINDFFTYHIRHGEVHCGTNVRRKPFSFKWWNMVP

HpAgD [4] = biological target: T1, HpAgD; assay: Determination of IC50 values against HpAgD; assay type: biochemical; conditions: for inhibition of HpAgD: concentrations as high as 500 μM
[5] = Stability in aqueous buffer; assay type: physicochemical; conditions: not shown
HpAgD [6] = biological target: T1, HpAgD; assay: Site of inactivator modification; conditions: 5 eq. inactivator, 30 min, tryptic digest
Wild Type HpAgD = biological target: T2, Wild Type HpAgD (Helicobacter pylori, UniProt O24890); assay: HpAgD activity assay; conditions: for ability to serve as HpAgD substrate: known PAD substrates
T2 sequence (O24890 1-330): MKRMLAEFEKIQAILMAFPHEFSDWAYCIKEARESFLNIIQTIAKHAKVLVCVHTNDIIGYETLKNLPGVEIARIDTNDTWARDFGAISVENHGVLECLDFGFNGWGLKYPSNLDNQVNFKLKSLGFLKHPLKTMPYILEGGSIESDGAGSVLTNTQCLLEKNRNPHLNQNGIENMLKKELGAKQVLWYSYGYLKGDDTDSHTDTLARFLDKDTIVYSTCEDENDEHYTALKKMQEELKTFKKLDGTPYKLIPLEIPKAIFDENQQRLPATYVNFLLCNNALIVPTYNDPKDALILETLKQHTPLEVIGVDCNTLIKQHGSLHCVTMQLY

D198A HpAgD = assay type: biochemical, Helicobacter pylori
HpAgD [7] = biological target: T1, HpAgD; assay: Metal inhibition of HpAgD; assay type: biochemical; conditions: 15 min pre-incubation with metal ion, 5.0 mM agmatine
N=C(N)NCCCCN = assay: purified protein, by the assay type; conditions: other: steady state, D198A HpAgD; pH 8.0; 37.0 °C
[8] = biological target: Helicobacter pylori agmatine deiminase (HpAgD), untagged wild type (Helicobacter pylori) (UniProt O24890); assay: SEC
[9] = substrate: N=C(N)NCCCCN; assay: purified protein, by the assay type; conditions: other: steady state, Wild Type HpAgD, pH 8.0, 37 °C
[10] = read-out: IC50 HpAgD, 15 min pre-incubation, 0.5 mM Agmatine

For `N=C(CCl)NCCCCN` [ABCA, N-(4-aminobutyl)-2-chloro-ethanimidamide], the Ki (HpAgD [1]) was 1200 ± 234 µM, the kinact/KI (HpAgD [1]) was 208 M⁻¹ s⁻¹ and the “substrate protection against inactivation” value (HpAgD [2]) was “substrate can protect against enzyme inactivation”. For the same molecule, the “residual activity after dialysis (irreversibility)” value (HpAgD [3]) was “enzyme activity was not recovered; also recorded: irreversibly inhibit HpAgD”, the IC50 (PAD4) was over 1000 µM and the “inhibition of PAD4” value (PAD4) was “essentially no inhibition was observed”. For the same molecule, the IC50 (HpAgD [4]) was 0.87 ± 0.03 µM, the “stability in aqueous buffer” value [5] was “excellent stability” and the site of modification (HpAgD [6]) was “modifying Cys324”.

With `N=C(CF)NCCCCN` [ABFA, N-(4-aminobutyl)-2-fluoro-ethanimidamide] the Ki (HpAgD [1]) was 530 ± 150 µM, the kinact/KI (HpAgD [1]) was 66.7 M⁻¹ s⁻¹ and the “substrate protection against inactivation” value (HpAgD [2]) was “substrate can protect against enzyme inactivation”. The “residual activity after dialysis (irreversibility)” value (HpAgD [3]) was “enzyme activity was not recovered; also recorded: irreversibly inhibit HpAgD”, the IC50 (PAD4) was over 1000 µM and the “inhibition of PAD4” value (PAD4) was “essentially no inhibition was observed”. For the same molecule, the IC50 (HpAgD [4]) was 6.8 ± 0.26 µM, the “stability in aqueous buffer” value [5] was “excellent stability” and the site of modification (HpAgD [6]) was “modifying Cys324”.

With `NCCCCN=C(N)N` [Agmatine] the “rate (kcat/Km) relative to all other substrates tested” value (Wild Type HpAgD; Wild Type HpAgD) was > 10^4 fold, the kcat (Wild Type HpAgD; steady state, Wild Type HpAgD, pH 8.0, 37 °C) was ~ 5 min^−1 and the “decrease in kcat, D198A vs wild type” value (D198A HpAgD) was 17 fold. The “increase in Km, D198A vs wild type” value (D198A HpAgD) was 5 fold.

In the case of `NC(=O)[C@H](CCCN=C(N)N)NC(=O)c1ccccc1` [BAA, N-α-Benzoyl-L-arginine amide], the “ability to serve as HpAgD substrate” value (Wild Type HpAgD) is reported as “none of these compounds served as a substrate”.

With `CCOC(=O)[C@H](CCCN=C(N)N)NC(=O)c1ccccc1` [BAEE, N-α-Benzoyl-L-arginine ethyl ester] the “ability to serve as HpAgD substrate” value (Wild Type HpAgD) was “none of these compounds served as a substrate”.

For `COC(=O)[C@H](CCCNC(=N)N)NC(=O)c1ccccc1` [BAME, N-α-Benzoyl-L-arginine methyl ester], the “ability to serve as HpAgD substrate” value (Wild Type HpAgD) was “none of these compounds served as a substrate”.

With `NC(=O)[C@H](CCCN=C(N)CCl)NC(=O)c1ccccc1` [Cl-amidine] the “inhibition of HpAgD” value (HpAgD [4]) was “did not afford HpAgD inhibition” and the IC50 (HpAgD [4]; [10]) was over 500 µM.

In the case of `[Co+2]` [Co^2+], the IC50 (HpAgD [7]) is reported as 13 ± 5.5 µM.

For `NC(=O)[C@H](CCCN=C(N)CF)NC(=O)c1ccccc1` [F-amidine], the “inhibition of HpAgD” value (HpAgD [4]) was “did not afford HpAgD inhibition” and the IC50 (HpAgD [4]; [10]) was over 500 µM.

With `[Ni+2]` [Ni^2+] the IC50 (HpAgD [7]) was 100 ± 3.9 µM.

Work on `[Zn+2]` [Zn^2+] yielded an IC50 (HpAgD [7]) of 30 ± 3 µM.

For “Ac-SGRGK-COO^− (Ac-SGRGK-OH; UniProt P62805 2-6, looked up, fragment) [Ac-H4-5]”, the “ability to serve as HpAgD substrate” value (Wild Type HpAgD) was “none of these compounds served as a substrate”.

“D198A HpAgD (Helicobacter pylori 26695; D198A)” showed a Km (N=C(N)NCCCCN) of 170 ± 79.8 µM, a kcat (N=C(N)NCCCCN) of 0.00467 s⁻¹ and a kcat/Km (N=C(N)NCCCCN) of 28.3 M⁻¹ s⁻¹.

In the case of “Helicobacter pylori agmatine deiminase (HpAgD), untagged wild type (from UniProt O24890 1-330) (enzyme)”, the stoichiometry N [8] is reported as 2.

B1: Wild Type HpAgD (Helicobacter pylori 26695) (protein)
chain: MKRMLAEFEKIQAILMAFPHEFSDWAYCIKEARESFLNIIQTIAKHAKVLVCVHTNDIIGYETLKNLPGVEIARIDTNDTWARDFGAISVENHGVLECLDFGFNGWGLKYPSNLDNQVNFKLKSLGFLKHPLKTMPYILEGGSIESDGAGSVLTNTQCLLEKNRNPHLNQNGIENMLKKELGAKQVLWYSYGYLKGDDTDSHTDTLARFLDKDTIVYSTCEDENDEHYTALKKMQEELKTFKKLDGTPYKLIPLEIPKAIFDENQQRLPATYVNFLLCNNALIVPTYNDPKDALILETLKQHTPLEVIGVDCNTLIKQHGSLHCVTMQLY
In the case of B1, the Km [9] is reported as 33 ± 8.8 µM, the kcat [9] is reported as 0.0817 s⁻¹ and the kcat/Km [9] is reported as 2450 M⁻¹ s⁻¹.

Source: PMC2823940 (Bioorganic chemistry, 2009)
